≈ marks a conversion by molar mass, not a printed value. Entries after “also recorded” stand apart in the source; their conditions may differ. Like-named read-outs stand apart in the source and are kept apart here.
Legend:
AfPGM [1] = biological target: T1, AfPGM (Aspergillus fumigatus, UniProt Q4WY53); experiment: biochemical
T1 construct: Full length AfPGM; 6His-GST (N, cleaved yes); made in house; host or cells: E. coli BL21 (DE3) pLysS
Experimental: (§1) The reaction mixture contained MOPS–NaOH (pH 7.4; 50 mM), MgSO4 (1.5 mM), NADP^+ (1 mM), G6PDH (0.01 U) from L. mesenteroides, Glc-1P (500 μM), Glc-1,6-2P (50 μM), and enzyme (5 nM). The reaction was carried out at 25 °C for 6 min in a total volume of 100 μl. Formation of NADPH was detected in real-time (every 1.5 min), measuring fluorescence signal (excitation at 360 nm; emission at 460 nm). To measure the inhibitory activity, compounds with different concentrations (3% (v/v) DMSO) were added to the reaction system. IC50 values were calculated using the product (NADPH) concentration at 6 min with 500 μM Glc-1P.
(§2) Figure S11: Representative enzyme activity assays for PGMs. Error bars represent standard deviation of three determinations. Panel A and B show the time course of PGMs and PGM mutants in which sugar recognition glutamates are mutated to glutamine. […] Values in parentheses indicate the time at which DTT (1 mM) was added.

AfPGMC353∗ [2] = biological target: T2, AfPGMC353∗ (Aspergillus fumigatus, UniProt Q4WY53, C131S/C242S/C364S); experiment: G6PDH coupled assay for PGM, AfPGMC353∗ variant (C353 the sole cysteine); type: biochemical; conditions: IC50 AfPGMC353, AfPGMC353∗ (all other cysteines mutated to serine) 5 nM, no preincubation
T2 construct: Full length AfPGM; 6His-GST (N, cleaved yes); made in house; host or cells: E. coli BL21 (DE3) pLysS
Experimental: as §1

HsPGM = biological target: T3, HsPGM (Homo sapiens, UniProt P36871); experiment: G6PDH coupled assay for PGM, HsPGM; type: biochemical
T3 construct: Full length HsPGM; 6His-GST (N, cleaved yes); made in house; host or cells: E. coli BL21 (DE3) pLysS (same protocol as AfPGM)
T3 sequence (P36871 1-562): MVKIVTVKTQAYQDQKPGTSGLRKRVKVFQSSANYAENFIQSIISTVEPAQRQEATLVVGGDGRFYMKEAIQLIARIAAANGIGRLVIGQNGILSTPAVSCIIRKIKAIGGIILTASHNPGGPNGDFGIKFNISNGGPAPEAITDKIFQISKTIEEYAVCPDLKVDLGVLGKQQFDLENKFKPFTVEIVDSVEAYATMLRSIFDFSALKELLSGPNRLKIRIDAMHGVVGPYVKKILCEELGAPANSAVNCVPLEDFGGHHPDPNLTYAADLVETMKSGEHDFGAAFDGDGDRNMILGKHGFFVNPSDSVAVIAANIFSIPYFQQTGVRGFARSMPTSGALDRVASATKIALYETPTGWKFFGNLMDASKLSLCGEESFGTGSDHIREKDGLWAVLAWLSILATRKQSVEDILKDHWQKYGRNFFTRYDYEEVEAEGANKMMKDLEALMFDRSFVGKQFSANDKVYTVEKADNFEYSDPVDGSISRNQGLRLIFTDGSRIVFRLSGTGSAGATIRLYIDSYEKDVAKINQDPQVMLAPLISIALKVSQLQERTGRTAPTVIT
Experimental: as §1, §2

CaPGM = biological target: T4, CaPGM (Candida albicans, UniProt A0A1D8PSA9); experiment: G6PDH coupled assay for PGM, WT CaPGM; type: biochemical; conditions: 5 nM enzyme, no preincubation
T4 sequence (A0A1D8PSA9 1-560): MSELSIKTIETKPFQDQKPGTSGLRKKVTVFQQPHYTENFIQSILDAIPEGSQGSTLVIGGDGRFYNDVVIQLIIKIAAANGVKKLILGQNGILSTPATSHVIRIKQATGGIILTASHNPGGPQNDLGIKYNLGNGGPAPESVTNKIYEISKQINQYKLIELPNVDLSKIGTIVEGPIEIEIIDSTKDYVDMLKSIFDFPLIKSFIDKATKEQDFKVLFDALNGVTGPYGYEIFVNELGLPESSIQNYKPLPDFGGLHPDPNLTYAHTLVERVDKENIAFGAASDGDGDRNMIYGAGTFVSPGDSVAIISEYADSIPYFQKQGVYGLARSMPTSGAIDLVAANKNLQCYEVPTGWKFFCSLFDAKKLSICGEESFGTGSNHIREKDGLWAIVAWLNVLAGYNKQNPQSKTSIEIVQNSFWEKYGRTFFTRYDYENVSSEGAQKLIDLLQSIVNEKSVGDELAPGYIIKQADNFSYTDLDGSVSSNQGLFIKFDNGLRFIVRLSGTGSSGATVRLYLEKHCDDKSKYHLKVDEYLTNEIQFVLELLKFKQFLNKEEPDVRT
Experimental: as §1

CaPGMC359S = biological target: T5, CaPGMC359S (Candida albicans, UniProt A0A1D8PSA9, C359S); experiment: G6PDH coupled assay for PGM, CaPGM C359S mutant; type: biochemical; conditions: 5 nM enzyme, no preincubation
T5 sequence (A0A1D8PSA9 1-560 C359S): T4 sequence (A0A1D8PSA9 1-560)
Experimental: as §1

AfPGMC353V = biological target: T6, AfPGMC353V (Aspergillus fumigatus, UniProt Q4WY53, C353V); experiment: G6PDH coupled assay for PGM, AfPGM C353V mutant; type: biochemical; conditions: 5 nM enzyme, no preincubation
T6 construct: Full length AfPGM; 6His-GST (N, cleaved yes); made in house; host or cells: E. coli BL21 (DE3) pLysS
Experimental: as §1

A. fumigatus = experiment: Growth inhibition (MIC) of A. fumigatus; type: cell-based; conditions: Aspergillus fumigatus; preliminary experiments
Text: Figure S12: Limited correlation between minimal inhibitory concentrations (MIC) and IC50 values of isothiazolone derivatives against AfPGM. […] The R^2 value of linear correlation is 0.15.

AfPGM [3] = biological target: T1, AfPGM; experiment: Biolayer interferometry fragment binding; conditions: 0 to 500 µM
Experimental: Amino groups of lysine side chains in PGM were biotinylated (EZ-Link NHSPEG4-Biotin) with one-to-one stoichiometry (one adduct per protein molecule). Biotinylated protein molecules were loaded on streptavidin-immobilized sensors (Super Streptavidin Biosensor). BLI was carried out using an Octet Red 384 instrument (ForteBio). Screening cycles included the baseline phase (protein was incubated for 60 s in screening buffer [25 mM Hepes–NaOH (pH 7.5), 150 mM NaCl, 2% DMSO (v/v]), the association phase (protein was incubated for 60 s in wells containing 200 μM fragment compounds dissolved in the screening buffer), and the dissociation phase (protein was incubated for 60 s in the screening buffer without any fragment compounds). Sensors blocked by biocytin were utilized as a control. Fragment compounds were purchased from Maybridge (1000 fragment compounds). Fragment compounds whose signal values were higher than the median value plus three times robust SD were considered as hits. The confirmation of hits was carried out using dose-response assays. Briefly, a BLI assay was carried out with each hit in a series of concentrations (from 0 to 500 μM). Running cycles included the baseline phase (60 s in the screening buffer), the association phase (120 s in the screening buffer with fragment compounds), and the dissociation phase (120 s in the screening buffer without compounds). […]

AfPGM [4] = biological target: T1, AfPGM; experiment: AfPGM enzyme kinetics in the presence of ISFP1 (G6PDH coupled assay); type: biochemical
Experimental: As previously described, two speculated mechanisms, perturbing substrate binding or phosphoryl transfer, have been proposed based on the complex structure of CaPGM-ISFP1. […] As such, the inhibitory mechanism is likely to be a consequence of slowing the rate of phosphoryl transfer.
as §1, §2

AfPGM [5] = biological target: T1, AfPGM; experiment: Covalent modification, intact protein mass spectrometry, AfPGM; type: binding; conditions: AfPGM:ISFP1 1:20; one adduct per protein molecule; reversed by DTT
Experimental: (§3) PGM was dissolved to 20 μM in Hepes buffer (25 mM Hepes–NaOH (pH 7.5), 150 mM NaCl) and incubated with compound (protein:compound 1:20; 2% (v/v) DMSO) at 20 °C for 10 min (for AfPGM) or 4 °C overnight (for AfPGMC353∗). Excess compound molecules were removed using desalting column (CentriPure P2, Generon). PGM (20 μM) incubated with DMSO at the same condition was utilized as a control. The removal of isothiazolone adducts was carried out through the incubation with DTT (10 mM) at 20 °C for 10 min. DTT was removed using a desalting column (CentriPure P2, Generon). The ring-opened isothiazolone protein modification was confirmed using intact protein mass spectrometry.

AfPGMC353∗ [6] = biological target: T2, AfPGMC353∗; experiment: Covalent modification, intact protein mass spectrometry, AfPGMC353∗; type: binding; conditions: AfPGMC353∗:ISFP1 1:20; single adduct on C353
Experimental: as §3

[7] = 50 µM ISFP1 preincubated 15 min with 5 nM enzyme, DTT 1 mM (Fig. S11G)

T1 sequence (Q4WY53 whole entry): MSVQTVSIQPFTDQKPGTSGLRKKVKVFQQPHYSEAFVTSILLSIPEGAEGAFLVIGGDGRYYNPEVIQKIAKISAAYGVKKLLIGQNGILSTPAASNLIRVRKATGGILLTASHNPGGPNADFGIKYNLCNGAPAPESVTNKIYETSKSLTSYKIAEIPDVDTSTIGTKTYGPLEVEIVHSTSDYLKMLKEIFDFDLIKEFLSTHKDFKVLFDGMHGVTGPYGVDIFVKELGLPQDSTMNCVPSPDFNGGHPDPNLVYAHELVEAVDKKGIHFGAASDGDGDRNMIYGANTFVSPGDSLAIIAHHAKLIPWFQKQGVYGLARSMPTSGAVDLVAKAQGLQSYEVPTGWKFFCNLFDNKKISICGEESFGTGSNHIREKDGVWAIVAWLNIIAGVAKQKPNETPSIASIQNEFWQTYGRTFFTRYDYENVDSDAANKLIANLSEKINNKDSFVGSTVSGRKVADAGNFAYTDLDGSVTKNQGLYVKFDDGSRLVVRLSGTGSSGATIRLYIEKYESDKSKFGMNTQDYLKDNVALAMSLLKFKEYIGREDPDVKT
T6 sequence (Q4WY53 whole entry C353V): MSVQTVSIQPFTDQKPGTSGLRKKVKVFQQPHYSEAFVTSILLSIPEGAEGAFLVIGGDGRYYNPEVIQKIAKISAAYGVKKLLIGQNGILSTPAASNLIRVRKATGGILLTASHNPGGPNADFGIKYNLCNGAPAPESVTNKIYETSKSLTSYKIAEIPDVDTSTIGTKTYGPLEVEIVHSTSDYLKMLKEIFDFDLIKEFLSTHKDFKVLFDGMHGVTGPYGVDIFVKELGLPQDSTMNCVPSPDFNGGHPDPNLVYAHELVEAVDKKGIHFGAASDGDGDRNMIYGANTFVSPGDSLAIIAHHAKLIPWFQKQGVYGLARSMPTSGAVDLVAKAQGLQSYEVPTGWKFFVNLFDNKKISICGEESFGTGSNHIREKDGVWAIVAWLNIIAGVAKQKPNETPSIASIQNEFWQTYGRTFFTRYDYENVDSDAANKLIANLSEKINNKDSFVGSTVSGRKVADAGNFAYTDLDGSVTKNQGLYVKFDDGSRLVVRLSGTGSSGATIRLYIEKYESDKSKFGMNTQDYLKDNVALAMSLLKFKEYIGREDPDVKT
T2 sequence (Q4WY53 whole entry C131S/C242S/C364S): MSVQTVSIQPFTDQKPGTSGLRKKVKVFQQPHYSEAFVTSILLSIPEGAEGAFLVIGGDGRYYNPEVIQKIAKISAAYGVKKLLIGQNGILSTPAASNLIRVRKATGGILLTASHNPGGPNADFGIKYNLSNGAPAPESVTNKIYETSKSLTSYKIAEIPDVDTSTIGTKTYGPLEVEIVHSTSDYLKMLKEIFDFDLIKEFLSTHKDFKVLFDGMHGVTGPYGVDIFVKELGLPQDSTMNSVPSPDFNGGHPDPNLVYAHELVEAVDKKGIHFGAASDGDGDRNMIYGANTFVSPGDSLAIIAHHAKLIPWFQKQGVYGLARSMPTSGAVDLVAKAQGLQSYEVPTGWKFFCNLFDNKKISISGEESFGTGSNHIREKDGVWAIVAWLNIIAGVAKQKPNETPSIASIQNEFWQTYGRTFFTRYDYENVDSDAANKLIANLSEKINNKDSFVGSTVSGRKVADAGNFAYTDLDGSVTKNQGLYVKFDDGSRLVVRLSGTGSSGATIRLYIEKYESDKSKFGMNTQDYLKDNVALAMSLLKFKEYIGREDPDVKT

O=c1ccsn1-c1cccc(Cl)c1F [ISFP1]
Rescue of AfPGM activity by DTT after inhibition (AfPGM [1]; [7]): rescued by the addition of DTT | IC50 (AfPGM [1]; WT AfPGM 5 nM, no preincubation, 500 μM Glc-1P): 2 µM | IC50 (AfPGMC353∗ [2]): 3 µM | Rescue of HsPGM activity by DTT after inhibition (HsPGM; [7]): could not be rescued by DTT treatment | IC50 (HsPGM; IC50 HsPGM, HsPGM 5 nM, no preincubation, > values: highest concentration at which the compound can solubilize): 80 ± 2 µM | IC50 (HsPGM; enzyme preincubated with compound for 15 min (Fig. S11E, F), read-out: IC50 HsPGM after preincubation): 7.5 µM | IC50 (CaPGM): 5 µM | IC50 (CaPGMC359S): > 400 µM | IC50 CaPGM C359S mutant (CaPGMC359S): No inhibition | Inhibition of AfPGM C353V mutant (AfPGMC353V): does not inhibit; also recorded: not inhibited | MIC (A. fumigatus): 10 µg/mL (≈ 43.5 µM) | Binding to AfPGM by BLI (AfPGM [3]): bound to AfPGM in a concentration-dependent manner | Decrease of AfPGM kcat (AfPGM [4]; 20 μM ISFP1): 10 fold | Change of AfPGM Km (AfPGM [4]; in the presence of ISFP1): remains at the same level | Increase in protein mass after incubation with compound (AfPGM [5]): 232 Da | Increase in protein mass after incubation with compound (AfPGMC353∗ [6]): 232 Da

— paper PMC9168620, “Genetic validation of Aspergillus fumigatus phosphoglucomutase as a viable therapeutic target in invasive aspergillosis” (The Journal of Biological Chemistry, 2022)
